Here are results for 8 compounds from paper PMC10135315 (Antioxidants, 2023).

Structures are written as SMILES. Where two headings read alike, the source gives them in different places.

For experiment [1], the target named is T1, xanthine oxidase from bovine milk (Bos taurus, UniProt P80457).
T1 construct: xanthine oxidase from bovine milk (0.5 U/mg); purchased Sigma-Aldrich (St. Louis, MO, USA); host or cells: bovine milk (natural source)
Nature of the experiment: Steady-state determination of XO activity (uric acid formation at 295 nm), dose-dependent inhibition. Format: biochemical. As to conditions: 75 µM xanthine; for IC50: steady-state determination, 25 °C, pH 7.8. Here is the method: The activity of XO was measured spectrophotometrically at 25 °C by monitoring the increase of absorbance at 295 nm due to the formation of uric acid, using a Cary 100 UV-Vis Spectrophotometer (Agilent Technologies, Milan, Italy), essentially, as previously reported. […] The DMSO concentration carried over by the inhibitor was 0.5% (v/v); an identical concentration of DMSO was used in the absence of inhibitor. The reaction started with the addition of XO and was followed kinetically up to 30 s by continuously monitoring the absorbance. The initial rate of uric acid formation was derived from the linear part of the kinetics and expressed as ΔE/min. The effect of each inhibitor was evaluated through the ratio of residual XO activity measured in the presence of each inhibitor over that measured in the absence of inhibitor.

Experiment [2] addresses T1, xanthine oxidase from bovine milk. Nature of the experiment: Kinetic measurements of XO activity (Michaelis-Menten / Lineweaver-Burk). It is filed as biochemical. To be noted: for Ki / Vmax in presence of inhibitor: 4-30 µM xanthine; for Ki: from increase of KM for xanthine, competitive model; for Mechanism of XO inhibition: kinetic analysis; for Vmax in presence of inhibitor: pooled over the tested inhibitor concentrations. Here is the method:
The inhibition power of the various compounds and their mechanism of inhibition were assessed through kinetic measurements of the XO activity. To this aim, each assay was carried out in a 500 µL final volume reaction mixture, containing 4–30 µM xanthine dissolved in buffer A in the absence or presence of a fixed concentration of the various inhibitors. The reaction started with the addition of XO and was followed as indicated in steady-state assays. The kinetic parameters of the reaction, KM for the substrate and Vmax of the reaction, were derived either from the direct non-linear interpolation in the Michaelis–Menten hyperbolic equation of the initial rate of uric acid formation vs. the xanthine concentration or from a double reciprocal transformation of the kinetic data in Lineweaver–Burk plots. […] Therefore, the inhibition constant (Ki) was obtained from the increase of KM for xanthine in the presence of the inhibitor, according to the KM′ = KM•{1 + ([I]/Ki)} equation, where KM′ represents the KM for xanthine measured in the presence of the concentration [I] of the inhibitor.

For experiment [3] the target is unchanged. Nature of the experiment: Reversibility of XO inhibition by dilution method. It is filed as biochemical. The method, then:
The reversibility of the inhibition mechanism was evaluated through a dilution method of a solution containing XO and inhibitor. To this aim, a sample of XO was incubated at 25 °C in the absence or presence of a concentrated solution of inhibitor. Aliquots of these mixtures were withdrawn at different times and 4-fold diluted through the addition of a solution containing the substrate xanthine. The samples were then immediately assayed for XO activity as previously indicated for the steady-state determinations.

A further experiment deals with XO. To be noted: cited from earlier work.
The mark [4] stands for this setting: known XO inhibitors co-crystallised into XO, no reference given.

T1 sequence (P80457 whole entry): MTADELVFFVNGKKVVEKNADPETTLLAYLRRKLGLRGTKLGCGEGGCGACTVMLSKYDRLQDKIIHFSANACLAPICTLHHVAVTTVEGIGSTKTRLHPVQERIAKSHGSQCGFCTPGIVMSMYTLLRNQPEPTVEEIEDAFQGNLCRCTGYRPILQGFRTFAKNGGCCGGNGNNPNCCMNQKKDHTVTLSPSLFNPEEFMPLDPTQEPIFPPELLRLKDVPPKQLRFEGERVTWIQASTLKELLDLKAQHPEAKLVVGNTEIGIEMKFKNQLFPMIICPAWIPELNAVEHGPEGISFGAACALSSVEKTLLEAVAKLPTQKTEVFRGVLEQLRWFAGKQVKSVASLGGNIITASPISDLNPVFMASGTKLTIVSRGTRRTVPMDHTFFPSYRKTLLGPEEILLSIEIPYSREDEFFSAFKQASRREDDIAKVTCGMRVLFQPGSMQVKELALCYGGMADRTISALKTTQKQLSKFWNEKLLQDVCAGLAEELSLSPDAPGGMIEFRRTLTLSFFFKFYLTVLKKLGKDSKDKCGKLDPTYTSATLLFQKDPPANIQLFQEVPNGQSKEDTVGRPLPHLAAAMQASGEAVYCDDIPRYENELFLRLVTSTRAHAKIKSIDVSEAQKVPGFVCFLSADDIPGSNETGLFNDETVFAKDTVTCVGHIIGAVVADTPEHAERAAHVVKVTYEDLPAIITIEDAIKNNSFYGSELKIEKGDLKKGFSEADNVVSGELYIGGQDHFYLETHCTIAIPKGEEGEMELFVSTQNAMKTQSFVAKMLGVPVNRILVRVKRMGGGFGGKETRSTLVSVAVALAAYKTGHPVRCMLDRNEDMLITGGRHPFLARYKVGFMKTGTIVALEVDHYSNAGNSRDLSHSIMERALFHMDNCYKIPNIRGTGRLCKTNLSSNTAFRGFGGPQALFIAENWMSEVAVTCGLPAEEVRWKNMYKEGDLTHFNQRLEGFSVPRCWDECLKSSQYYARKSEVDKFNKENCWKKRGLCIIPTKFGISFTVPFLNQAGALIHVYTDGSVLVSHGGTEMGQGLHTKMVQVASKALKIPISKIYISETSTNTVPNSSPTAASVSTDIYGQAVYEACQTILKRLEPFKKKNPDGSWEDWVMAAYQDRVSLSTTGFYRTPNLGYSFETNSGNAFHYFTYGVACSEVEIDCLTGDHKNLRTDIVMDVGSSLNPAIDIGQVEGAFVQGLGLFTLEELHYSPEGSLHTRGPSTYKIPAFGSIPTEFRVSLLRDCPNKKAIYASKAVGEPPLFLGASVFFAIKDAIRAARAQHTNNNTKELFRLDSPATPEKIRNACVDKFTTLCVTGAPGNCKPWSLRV

A word on the IC50: it is the concentration that gives 50% inhibition. For orientation: Ki means a measure of affinity in units of concentration, obtained from inhibition or displacement. `O=C(O)c1cc2ccc(Br)cc2[nH]1` [ALS-1]: in experiment [1], the “Inhibition profile of XO activity” value is “dose-dependent inhibition” and the IC50 is 82 µM. Also, in experiment [2], the Ki stood at 41 ± 14 µM, the “Mechanism of XO inhibition” value is reported as “competitive inhibitors” and the “Vmax in presence of inhibitor” value is listed as 0.087 ± 0.004 (n = 2) ΔE/min.

`O=C(O)c1cc(-c2cccc(F)c2)[nH]n1` [ALS-8]: in experiment [1], the “Inhibition profile of XO activity” value is listed as “dose-dependent inhibition” and the IC50 came out at 30 µM. Besides, in experiment [2], the Ki was 4.5 ± 1.5 µM, the “Mechanism of XO inhibition” value is “competitive inhibitors” and the “Vmax in presence of inhibitor” value is given as 0.093 ± 0.007 (n = 4) ΔE/min.

Regarding `Brc1cncc(-c2nn[nH]n2)c1` [ALS-15], in experiment [1], the “Inhibition profile of XO activity” value was “dose-dependent inhibition” and inhibition was half-maximal at 64 µM (IC50). Further, in experiment [2], the Ki is 23 ± 9 µM, the “Mechanism of XO inhibition” value is “competitive inhibitors” and the “Vmax in presence of inhibitor” value is given as 0.086 ± 0.003 (n = 4) ΔE/min.

For the compound `O=C(O)c1cc(-c2ccc(Cl)cc2)ncn1` [ALS-28], in experiment [1], the “Inhibition profile of XO activity” value is “dose-dependent inhibition” and inhibition was half-maximal at 18 µM (IC50). Moreover, in experiment [2], the Ki amounted to 2.7 ± 1.5 µM, the “Mechanism of XO inhibition” value is listed as “competitive inhibitors” and the “Vmax in presence of inhibitor” value was 0.113 ± 0.007 (n = 4) ΔE/min. Moreover, the “Time-dependent reduction of XO activity” value in experiment [3] (60 µM inhibitor, 25 °C, up to 30 min) is “no time-dependent reduction of XO activity”. Besides, the Reversibility of inhibition result in experiment [3] (preincubation with XO at 25 °C up to 30 min, then 4-fold dilution (ALS-28: 60 µM to 15 µM)) was “reversible inhibitor”.

Consider `N#Cc1cc(-c2n[nH]c(-c3ccncc3)n2)ccn1` [FYX-051, topiroxostat], for which the Inhibition mechanism result in the experiment with XO is “hybrid-type inhibition mechanism”.

On to `Cc1nc(-c2ccc(OCC(C)C)c(C#N)c2)sc1C(=O)O` [TEI-6720, febuxostat], for which, in the experiment on XO, the Inhibition mechanism result is given as “mixed-type inhibition”.

As for `O=c1c(O)c(-c2ccc(O)c(O)c2)oc2cc(O)cc(O)c12` [quercetin], in the experiment with XO (setting [4]), the Inhibition mechanism entry is recorded as “competitive”.

As for `O=C(O)c1ccccc1O` [salicylic acid], the Inhibition mechanism result in the experiment with XO (setting [4]) was “competitive inhibitor”.
